How the values were obtained:
rats = assay: warm water tail withdrawal assay (antinociception); conditions: for % MPE (at 0.1 mg/kg): 0.1 mg/kg i.v., mean (95% confidence interval); for ED50: Rattus norvegicus, iv
[1] = for NorBUP in fetal brains or maternal plasma: 1 or 3 mg/kg/day s.c. minipump, GD 9-20
hDOR = hDOR (Homo sapiens, UniProt P41143); assay: [35S]GTPγS binding, G-protein activation; assay type: biochemical; conditions: for type of activity at hDOR: 1 μM, no activation; for Emax at 1 µM: hDOR, determined from single-concentration (1 μM) experiments, read-out: Emax (% of vehicle)
hMOR = hMOR (Homo sapiens, UniProt P35372); assay: biochemical; conditions: read-out: Emax (% of vehicle)
[2] = 4 mg/kg i.v.; data not shown

hDOR, sequence (P41143 whole entry): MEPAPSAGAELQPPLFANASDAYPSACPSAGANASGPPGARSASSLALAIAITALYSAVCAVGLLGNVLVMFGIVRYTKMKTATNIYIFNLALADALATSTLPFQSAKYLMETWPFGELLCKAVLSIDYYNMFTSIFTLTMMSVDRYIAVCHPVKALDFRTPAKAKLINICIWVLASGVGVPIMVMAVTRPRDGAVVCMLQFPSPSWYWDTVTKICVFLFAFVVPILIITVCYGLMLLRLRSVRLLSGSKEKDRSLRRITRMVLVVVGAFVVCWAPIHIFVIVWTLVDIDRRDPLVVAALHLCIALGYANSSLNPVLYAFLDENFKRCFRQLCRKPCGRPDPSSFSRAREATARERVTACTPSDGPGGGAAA
hMOR, sequence (P35372 whole entry): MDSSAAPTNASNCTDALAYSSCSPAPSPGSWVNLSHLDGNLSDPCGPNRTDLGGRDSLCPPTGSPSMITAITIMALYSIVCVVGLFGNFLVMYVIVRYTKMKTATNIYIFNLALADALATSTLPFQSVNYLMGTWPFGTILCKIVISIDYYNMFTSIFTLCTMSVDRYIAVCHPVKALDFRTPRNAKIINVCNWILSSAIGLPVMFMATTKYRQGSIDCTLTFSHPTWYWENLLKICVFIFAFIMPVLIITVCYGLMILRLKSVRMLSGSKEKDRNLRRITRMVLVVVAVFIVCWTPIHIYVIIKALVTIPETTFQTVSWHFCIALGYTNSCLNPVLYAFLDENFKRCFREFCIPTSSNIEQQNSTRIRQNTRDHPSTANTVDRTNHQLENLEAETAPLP

SMILES	% MPE (at 0.1 mg/kg) (rats; 10 minutes)	% MPE (at 0.1 mg/kg) (rats; 60 minutes)	ED50 (rats; 10 min) [mg/kg]	ED50 (rats; 1 h) [mg/kg]	NorBUP in fetal brains or maternal plasma [1]	area under the curve vs. BUP ([1]; maternal plasma, data not shown)	type of activity at hDOR (hDOR)	Emax at 1 µM (hDOR) [%]	Emax (hMOR) [%]	area under the NorBUP glucuronide curve, BUP versus BUP-D2 group [2]
[2H]C([2H])(C1CC1)N1CC[C@]23c4c5ccc(O)c4O[C@H]2[C@@]2(OC)CC[C@@]3(C[C@@H]2[C@](C)(O)C(C)(C)C)C1C5 [BUP-D2, (4aS,6R,7R,7aR,12bS)-3-(cyclopropylmethyl-d2)-6-((S)-2-hydroxy-3,3-dimethylbutan-2-yl)-7-methoxy-1,2,3,4,5,6,7,7a-octahydro-4a,7-ethano-4,12-methanobenzofuro[3,2-e]isoquinolin-9-ol]	84.4 (43.5-125.2) % MPE	97.9 (89.1-106.8) % MPE	0.021	0.018	detected no NorBUP	significantly greater	neutral antagonists of hDORs	107		
C[C@@H](NC(=O)[C@@H](N)Cc1ccc(O)cc1)C(=O)NCC(=O)N(C)[C@@H](Cc1ccccc1)C(=O)NCCO [DAMGO]									308	
CO[C@@]12CC[C@@]3(C[C@@H]1[C@](C)(O)C(C)(C)C)C1Cc4ccc(O)c5c4[C@@]3(CCN1CC1CC1)[C@H]2O5 [BUP, buprenorphine]	90.1 (68.8-111.4) % MPE	96.8 (83.2-110.5) % MPE	0.025	0.021	detected no NorBUP		neutral antagonists of hDORs	114		significantly greater

Reference: patent publication US20260174855A1 (priority 2022, published 2026)
